Type in all cases: biochemical
Assay [1] deals with KAT6A Full length enzyme (Homo sapiens (Human), UniProt Q92794). In words: KAT6A assay (SAMDI-MS acetylation of H3 1-21 peptide). The settings on record: replicate number in parentheses.
Assay [2] deals with KAT7+JADE1+EAF6+ING5 4 protein complex (Homo sapiens (Human), UniProt O95251). In words: KAT7 JADE1 assay (SAMDI-MS acetylation of H3 1-21 peptide). The settings on record: replicate number in parentheses.
Assay [3] concerns the target KAT5 Full length enzyme (Homo sapiens (Human), UniProt Q92993). In words: KAT5 assay (SAMDI-MS acetylation of H4 1-21 peptide). The settings on record: Morrison equation fit; replicate number in parentheses; read-out: KAT5 Ki (nM) (replicate number).
Assay [4] concerns the target KAT8 Full length enzyme (Homo sapiens (Human), UniProt Q9H7Z6). In words: KAT8 assay (SAMDI-MS acetylation of H3 1-21 peptide). The settings on record: replicate number in parentheses.
Where [5] appears, read: Morrison equation fit, read-out: KAT6A Ki (nM) (replicate number).
[6] abbreviates: Morrison equation fit, read-out: KAT7 JADE1 Ki (nM) (replicate number).
Where [7] appears, read: Morrison equation fit, read-out: KAT8 Ki (nM) (replicate number).
Where [8] appears, read: read-out: KAT6A Ki (nM) (replicate).
The mark [9] stands for this setting: read-out: KAT7 JADE1 Ki (nM) (replicate).
Where [10] appears, read: read-out: KAT8 Ki (nM) (replicate).

Molecules are shown by their SMILES. Where two headings read alike, the source gives them in different places.

This passage reports Ki results from US20250122183A1 (Pfizer Inc., priority 2023, published 2025).

KAT5 Full length enzyme, sequence (Q92993 whole entry): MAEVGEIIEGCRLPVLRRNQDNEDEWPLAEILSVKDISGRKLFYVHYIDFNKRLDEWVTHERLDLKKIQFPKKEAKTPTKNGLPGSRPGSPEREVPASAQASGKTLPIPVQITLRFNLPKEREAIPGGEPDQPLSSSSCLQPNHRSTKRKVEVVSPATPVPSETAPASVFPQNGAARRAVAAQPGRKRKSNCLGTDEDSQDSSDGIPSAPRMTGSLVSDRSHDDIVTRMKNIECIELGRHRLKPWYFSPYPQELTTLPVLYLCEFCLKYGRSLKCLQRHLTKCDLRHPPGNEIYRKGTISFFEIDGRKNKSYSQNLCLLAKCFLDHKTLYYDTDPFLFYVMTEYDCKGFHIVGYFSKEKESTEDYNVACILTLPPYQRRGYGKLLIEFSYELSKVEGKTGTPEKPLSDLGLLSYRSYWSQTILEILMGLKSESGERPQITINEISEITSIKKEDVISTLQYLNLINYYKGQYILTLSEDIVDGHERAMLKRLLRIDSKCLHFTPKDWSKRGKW
KAT8 Full length enzyme, sequence (Q9H7Z6 whole entry): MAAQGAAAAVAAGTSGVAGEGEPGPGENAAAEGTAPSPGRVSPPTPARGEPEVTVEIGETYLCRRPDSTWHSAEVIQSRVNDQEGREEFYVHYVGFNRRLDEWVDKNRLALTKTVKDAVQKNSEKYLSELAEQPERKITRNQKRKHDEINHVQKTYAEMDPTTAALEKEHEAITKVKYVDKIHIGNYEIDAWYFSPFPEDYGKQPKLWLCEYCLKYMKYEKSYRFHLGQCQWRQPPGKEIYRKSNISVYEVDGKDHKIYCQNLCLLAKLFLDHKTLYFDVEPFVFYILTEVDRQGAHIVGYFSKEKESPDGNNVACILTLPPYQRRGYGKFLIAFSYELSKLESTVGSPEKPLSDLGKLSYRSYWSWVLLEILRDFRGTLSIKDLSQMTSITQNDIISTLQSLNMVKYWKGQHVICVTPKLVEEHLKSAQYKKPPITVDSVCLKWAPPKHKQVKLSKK
KAT6A Full length enzyme, sequence (Q92794 other isoform, or with tags, fused parts or gaps): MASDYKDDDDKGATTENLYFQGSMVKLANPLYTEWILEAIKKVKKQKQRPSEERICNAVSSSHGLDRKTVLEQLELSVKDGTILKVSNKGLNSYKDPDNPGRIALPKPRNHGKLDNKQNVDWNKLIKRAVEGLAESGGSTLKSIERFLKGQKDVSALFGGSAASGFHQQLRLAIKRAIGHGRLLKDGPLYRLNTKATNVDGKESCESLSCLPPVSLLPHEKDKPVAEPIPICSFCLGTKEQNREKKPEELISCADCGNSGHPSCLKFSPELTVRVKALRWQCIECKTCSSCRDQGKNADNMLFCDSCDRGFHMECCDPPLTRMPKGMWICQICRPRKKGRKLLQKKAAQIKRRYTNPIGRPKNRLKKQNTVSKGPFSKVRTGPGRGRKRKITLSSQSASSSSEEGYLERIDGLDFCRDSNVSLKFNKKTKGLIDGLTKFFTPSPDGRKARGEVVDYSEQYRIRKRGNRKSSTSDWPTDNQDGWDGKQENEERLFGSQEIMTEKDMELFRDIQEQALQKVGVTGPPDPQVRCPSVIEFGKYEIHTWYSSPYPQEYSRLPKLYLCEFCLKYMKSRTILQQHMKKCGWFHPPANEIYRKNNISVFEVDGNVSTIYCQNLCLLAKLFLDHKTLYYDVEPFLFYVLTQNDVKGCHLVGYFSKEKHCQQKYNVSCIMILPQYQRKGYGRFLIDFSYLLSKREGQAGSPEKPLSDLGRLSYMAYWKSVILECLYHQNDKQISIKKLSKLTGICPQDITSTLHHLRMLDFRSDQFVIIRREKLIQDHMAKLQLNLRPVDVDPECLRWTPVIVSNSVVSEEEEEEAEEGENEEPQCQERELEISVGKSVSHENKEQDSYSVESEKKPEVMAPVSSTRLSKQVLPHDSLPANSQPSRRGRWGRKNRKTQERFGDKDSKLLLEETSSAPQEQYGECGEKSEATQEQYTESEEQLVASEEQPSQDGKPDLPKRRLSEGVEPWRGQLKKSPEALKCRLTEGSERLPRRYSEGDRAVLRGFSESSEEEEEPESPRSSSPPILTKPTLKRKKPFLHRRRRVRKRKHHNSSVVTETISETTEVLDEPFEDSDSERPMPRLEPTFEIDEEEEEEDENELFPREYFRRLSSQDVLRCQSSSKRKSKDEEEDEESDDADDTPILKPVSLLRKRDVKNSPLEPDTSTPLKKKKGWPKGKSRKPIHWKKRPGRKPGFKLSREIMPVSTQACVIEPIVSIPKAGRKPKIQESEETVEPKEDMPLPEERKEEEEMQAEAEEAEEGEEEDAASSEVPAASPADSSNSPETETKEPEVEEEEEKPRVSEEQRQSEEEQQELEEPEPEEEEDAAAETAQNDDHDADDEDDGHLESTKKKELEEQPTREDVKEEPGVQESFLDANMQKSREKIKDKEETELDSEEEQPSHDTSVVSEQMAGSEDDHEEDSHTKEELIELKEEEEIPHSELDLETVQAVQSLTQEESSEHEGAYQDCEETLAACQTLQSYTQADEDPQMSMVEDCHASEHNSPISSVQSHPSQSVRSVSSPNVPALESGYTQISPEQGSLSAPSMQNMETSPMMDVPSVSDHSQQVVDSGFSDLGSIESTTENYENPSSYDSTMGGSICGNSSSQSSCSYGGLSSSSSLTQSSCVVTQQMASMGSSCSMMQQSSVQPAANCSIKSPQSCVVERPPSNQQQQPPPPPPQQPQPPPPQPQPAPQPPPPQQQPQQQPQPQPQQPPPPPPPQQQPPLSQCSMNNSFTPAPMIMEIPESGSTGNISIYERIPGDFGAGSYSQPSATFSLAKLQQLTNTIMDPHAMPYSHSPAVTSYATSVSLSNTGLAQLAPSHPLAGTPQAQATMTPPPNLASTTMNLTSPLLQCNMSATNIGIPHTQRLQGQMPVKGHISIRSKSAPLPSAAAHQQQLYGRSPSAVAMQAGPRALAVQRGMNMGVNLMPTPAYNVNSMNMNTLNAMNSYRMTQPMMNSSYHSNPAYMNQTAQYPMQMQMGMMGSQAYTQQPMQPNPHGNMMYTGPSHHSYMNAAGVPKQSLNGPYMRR

As usually defined, the Ki is a measure of affinity in units of concentration, obtained from inhibition or displacement. As to `COc1cc2c(NS(=O)(=O)c3c(OC)cccc3OC)noc2cc1Nc1cc([C@H]2CC2(F)F)[nH]n1` (single isomer, unassigned) [Example 68, N-(6-{[5-(2,2-difluorocyclopropyl)-1H-pyrazol-3-yl]amino}-5-methoxy-1,2-benzoxazol-3-yl)-2,6-dimethoxybenzene-1-sulfonamide], the Ki in assay [1] (setting [5]) came to 1.2 nM; in assay [2] (setting [6]), 16.8 nM; in assay [3], 39.3 nM; in assay [4] (setting [7]), 4130 nM.
In the same order, the values of `COc1cc2c(NS(=O)(=O)c3c(OC)cccc3OC)noc2cc1Nc1cc([C@@H]2CC2(F)F)[nH]n1` (single isomer, unassigned) [Example 69, N-(6-{[5-(2,2-difluorocyclopropyl)-1H-pyrazol-3-yl]amino}-5-methoxy-1,2-benzoxazol-3-yl)-2,6-dimethoxybenzene-1-sulfonamide] are more than 3290 nM, more than 29000 nM, more than 50000 nM and more than 13000 nM.
With `COc1cc2c(NS(=O)(=O)c3c(OC)cccc3OC)noc2cc1Nc1cc([C@H](C)O)n[nH]1` (single isomer, unassigned) [Example 86, N-(6-{[3-(1-hydroxyethyl)-1H-pyrazol-5-yl]amino}-5-methoxy-1,2-benzoxazol-3-yl)-2,6-dimethoxybenzene-1-sulfonamide], the Ki in assay [1] (setting [5]) is 8.9 nM; in assay [2] (setting [6]), 552 nM; in assay [3], 1280 nM; in assay [4] (setting [7]) it was more than 13000 nM.
Taken in the same sequence, the figures for `COc1cc2c(NS(=O)(=O)c3c(OC)cccc3OC)noc2cc1Nc1cc([C@@H](C)O)n[nH]1` (single isomer, unassigned) [Example 87, N-(6-{[3-(1-hydroxyethyl)-1H-pyrazol-5-yl]amino}-5-methoxy-1,2-benzoxazol-3-yl)-2,6-dimethoxybenzene-1-sulfonamide] were 23.5 nM, 1230 nM, 1800 nM and more than 13000 nM.
In the same order, the values of `COc1cc2c(NS(=O)(=O)c3c(OC)cccc3OC)noc2cc1Nc1cc2n(n1)CC[C@@H]2C` (single isomer, unassigned) [Example 89, 2,6-dimethoxy-N-(5-methoxy-6-{[4-methyl-5,6-dihydro-4H-pyrrolo[1,2-b]pyrazol-2-yl]amino}-1,2-benzoxazol-3-yl)benzene-1-sulfonamide] are 3 nM, 39.3 nM, 168 nM and more than 12200 nM.
In the same order, the values of `COc1cc2c(NS(=O)(=O)c3c(OC)cccc3OC)noc2cc1Nc1cc2n(n1)CC[C@H]2C` (single isomer, unassigned) [Example 90, 2,6-dimethoxy-N-(5-methoxy-6-{[4-methyl-5,6-dihydro-4H-pyrrolo[1,2-b]pyrazol-2-yl]amino}-1,2-benzoxazol-3-yl)benzene-1-sulfonamide] are 3.4 nM, 62.4 nM, 251 nM and more than 13000 nM.
Consider `COc1cc2c(NS(=O)(=O)c3c(OC)cc(C4CCCCO4)cc3OC)noc2cc1Nc1cc(C2CC2)n[nH]1` (single isomer, unassigned) [Example 143, N-{6-[(3-cyclopropyl-1 H-pyrazol-5-yl)amino]-5-methoxy-1,2-benzoxazol-3-yl}-2,6-dimethoxy-4-(oxan-2-yl)benzene-1-sulfonamide], for which the Ki in assay [1] (setting [5]) came out at 1.1 nM; in assay [2] (setting [6]), 9.6 nM; in assay [3] it was 44.3 nM; in assay [4] (setting [7]), 436 nM.
In the case of `COc1cc2c(NS(=O)(=O)c3c(OC)cc(C4CCN(C)C4)cc3OC)noc2cc1Nc1cc(C2CC2)n[nH]1` (single isomer, unassigned) [Example 148, N-{6-[(3-cyclopropyl-1 H-pyrazol-5-yl)amino]-5-methoxy-1,2-benzoxazol-3-yl}-2,6-dimethoxy-4-(1-methylpyrrolidin-3-yl)benzene-1-sulfonamide], the Ki was 1.1 nM in assay [1] (setting [5]), 3.6 nM in assay [2] (setting [6]), 78.1 nM in assay [3] and 575 nM in assay [4] (setting [7]).
With `COc1cc2c(NS(=O)(=O)c3c(OC)cc(C4CN(C)CCO4)cc3OC)noc2cc1Nc1cc(C2CC2)n[nH]1` (single isomer, unassigned) [Example 152, N-{6-[(3-cyclopropyl-1 H-pyrazol-5-yl)amino]-5-methoxy-1,2-benzoxazol-3-yl}-2,6-dimethoxy-4-(4-methylmorpholin-2-yl)benzene-1-sulfonamide], the inhibition constant Ki in assay [1] (setting [5]) is 0.7 nM; in assay [2] (setting [6]), 4.1 nM; in assay [3], 105 nM; in assay [4] (setting [7]), 1160 nM.
For `COc1cc2c(NS(=O)(=O)c3cc4c(cc3OC)CCCC4)noc2cc1Nc1cc[nH]n1` [Example 05, 3-Methoxy-N-{5-methoxy-6-[(1H-pyrazol-3-yl)amino]-1,2-benzoxazol-3-yl}-5,6,7,8-tetrahydronaphthalene-2-sulfonamide], the Ki was found to be 0.5 nM in assay [1] (setting [5]), 13.6 nM in assay [3] and 290 nM in assay [4] (setting [7]).
In the same order, the values of `COc1cc2c(NS(=O)(=O)c3cc(C)c(C)cc3OC)noc2cc1Nc1cc[nH]n1` [Example 25, 2-methoxy-N-{5-methoxy-6-[(1H-pyrazol-3-yl)amino]-1,2-benzoxazol-3-yl}-4,5-dimethylbenzene-1-sulfonamide] are 0.8 nM, 121 nM and 446 nM.
Turning to `COc1cc2c(NS(=O)(=O)c3c(OC)cc(N4CCCC4=O)cc3OC)noc2cc1Nc1cc(C2CC2)n[nH]1` [Example 246, N-{6-[(3-cyclopropyl-1H-pyrazol-5-yl)amino]-5-methoxy-1,2-benzoxazol-3-yl}-2,6-dimethoxy-4-(2-oxopyrrolidin-1-yl)benzene-1-sulfonamide], the Ki in assay [1] (setting [8]) was 1 nM; in assay [2] (setting [9]), 6.4 nM; in assay [4] (setting [10]), 1840 nM.
Take `COc1cc2c(NS(=O)(=O)c3c(OC)cc(C4CCOCC4)cc3OC)noc2cc1Nc1cc(C2CC2)n[nH]1` [Example 265, N-{6-[(3-cyclopropyl-1 H-pyrazol-5-yl)amino]-5-methoxy-1,2-benzoxazol-3-yl}-2,6-dimethoxy-4-(oxan-4-yl)benzene-1-sulfonamide]: the Ki amounted to 0.3 nM in assay [1] (setting [8]), 2.3 nM in assay [2] (setting [9]) and 918 nM in assay [4] (setting [10]).
Take `COCc1cc(OC)c(S(=O)(=O)Nc2noc3cc(Nc4cc(C5CC5)n[nH]4)c(OC)cc23)c(OC)c1` [Example 270, N-{6-[(3-cyclopropyl-1 H-pyrazol-5-yl)amino]-5-methoxy-1,2-benzoxazol-3-yl}-2,6-dimethoxy-4-(methoxymethyl)benzene-1-sulfonamide]: the Ki was 1.3 nM in assay [1] (setting [8]), 13.5 nM in assay [2] (setting [9]) and 1790 nM in assay [4] (setting [10]).
As for `COc1cc2c(NS(=O)(=O)c3c(OC)cc(C(C)(C)OC)cc3OC)noc2cc1Nc1cc(C2CC2)n[nH]1` [Example 271, N-{6-[(3-cyclopropyl-1H-pyrazol-5-yl)amino]-5-methoxy-1,2-benzoxazol-3-yl}-2,6-dimethoxy-4-(2-methoxypropan-2-yl)benzene-1-sulfonamide], the Ki in assay [1] (setting [8]) was found to be 1 nM; in assay [2] (setting [9]), 7 nM; in assay [4] (setting [10]) it was 1010 nM.
